# Test results as given in patent US10570149B2, “Tricyclic heterocylic derivatives” (MERCK PATENT GMBH, priority 2016, dated 2020).
# Test system: phosphorylation of H2AX (gH2AX) in U2OS-TopBP1-ER cells
# Assay: gH2AX-TopBP1ER cellular assay
# Format: cell-based
# Conditions: Table 1, class symbols, 4-OHT
# Excerpt: gH2AX-TopBP1ER Cellular Assay
# ATR activity is restricted to replicating cells and many of its targets can also be phosphorylated by other PIKKs. These restrictions have limited the development of selective cellular assays in the past. In order to overcome these limitations, a previously developed genetically engineered cellular system in which ATR, and only ATR, can be activated at will in every cell (Toledo et al Genes Dev. 22, 297-302 2008) was used. In this system, the addition of 4-hydroxytamoxifen (4-OHT), promotes the nuclear translocation of a fragment of TopBP1 which then activates ATR. The phosphorylation of H2AX that follows 4-OHT addition in these cells is a direct and selective readout of ATR activity, which is not influenced by the rest of PIKKs. This property has been used in a screen for compounds with ATR inhibitory capacity. U2OS-TopBP1-ER cells stably express the TopBP1 activation domain (aa 978-1286) fused to a mutated estrogen receptor ligand binding domain. Nuclear accumulation of the TopBP1-ER-LBD fusion protein is induced by the synthetic ER antagonist 4-hydroxytamoxifen (4-OHT) (and not by natural ER agonists) mediating specific ATR activation that is independent of DNA damage or cell cycle. In the assay phosphorylation of the ATR substrate H2AX (“gH2AX”) at Serin 139 is detected using an immune-cytochemical procedure and high content imaging. For the assay U2OS-TopBP1-ER cells are plated in culture medium (DMEM high Glucose (no phenol red), 2 mM Glutamax, 1 mM Pyruvate, 10% FCS into Greiner 384 well plates, black, μclear #781090 (4000 cells/well/30 μl) and incubated for at least 20 hours at 37° C., 10% CO2 and 90% rH. Diluted test compounds (1 nM-30 μM final) and 4-OHT (1 μM final) are added simultaneously and cells are incubated for 2 h at 37° C. After fixation with 4% formaldehyde and permeabilisation with 0.2% Triton X-100 a complete immunocytochemical procedure is performed using a specific anti-gH2AX-antibody (Millipore 05-636, clone JBW301) and fluorescently labelled secondary antibody (Alexa Fluor® 488 goat anti-mouse F(ab′)2 fragment, Invitrogen A11017) and parallel nuclear staining for cell counting. The nuclear localised gH2AX signal is detected on an ImageXpress Ultra confocal high content reader and reported as % positive cells (nuclei).
row,Compound,IC50 [nM]
1,"C[C@@H]1COC[C@H]2COc3c(nc(-c4ccnc5[nH]ccc45)nc3C(C)(C)S(C)(=O)=O)N21 [A13, (6R,8aS)-1-(1-Methanesulfonyl-1-methyl-ethyl)-5-methyl-3-(1H-pyrrolo[2,3-b]pyridin-4-yl)-5,6,8a,9-tetrahydro-8H-7,10-dioxa-2,4,4b-triaza-phenanthrene]",10 to 100
2,"C[C@@H]1COC[C@H]2COc3c(nc(-c4c(N)cnc5[nH]ccc45)nc3C(C)(C)S(C)(=O)=O)N21 [A20, 4-[(4bR,8S)-1-(1-Methanesulfonyl-1-methyl-ethyl)-5-methyl-5,6,8a,9-tetrahydro-8H-7,10-dioxa-2,4,4b-triaza-phenanthren-3-yl]-1H-pyrrolo[2,3-b]pyridin-5-ylamine]",10 to 100
3,"CNc1cnc2[nH]ccc2c1-c1nc2c(c(C(C)(C)S(C)(=O)=O)n1)OC[C@@H]1COC[C@@H](C)N21 [A1, {4-[(S)-1-(1-Methanesulfonyl-1-methyl-ethyl)-5-(R)-methyl-5,6,8a,9-tetrahydro-8H-7,10-dioxa-2,4,4b-triaza-phenanthren-3-yl]-1H-pyrrolo[2,3-b]pyridin-5-yl}-methyl-amine]",10 to 100
